Experimental data: patent US8513440B2, “Compositions and methods comprising analogues of radicicol A” (Universite de Strasbourg, priority 2007, dated 2013)

Experiments:
Assay in all cases: radiometric protein kinase assay (33PanQinase Activity Assay)
Format in all cases: biochemical
SRC = molecular target: T1, SRC (Homo sapiens, UniProt P12931); settings: panel of 24 kinases, 1 μM ATP, read-out: Inhibition of Kinases IC50
T1 construct: made in house; host or cells: Sf9 insect cells (baculovirus)
Description: (§1) All protein kinases were expressed in Sf9 insect cells as human recombinant GST-fusion proteins or His-tagged proteins by means of the baculovirus expression system. Kinases were purified by affinity chromatography using either GSH-agarose (Sigma) or Ni-NTH-agarose (Qiagen). The purity of each kinase was checked by SDS-PAGE/silver staining and the identity of each kinase was verified by western blot analysis with kinase specific antibodies or by mass spectroscopy.
(§2) A radiometric protein kinase assay (^33PanQinase® Activity Assay) was used for measuring the kinase activity of the 24 protein kinases. All kinase assays were performed in 96-well FIashPlates™ from Perkin Elmer (Boston, Mass., USA) in a 50 μl reaction volume. The reaction cocktail was pipetted in 4 steps in the following order: • 20 μl of assay buffer • 5 μl of ATP solution (in H2O) • 5 μl of test compound (in 10% DMSO) • 10 μl of substrate/10 μl of enzyme solution (premixed)
(§3) The assay for all enzymes contained 60 mM HEPES-NaOH, pH 7.5, 3 mM MgCl2, 3 mM MnCl2, 3 μM Na-orthovanadate, 1.2 mM DTT, 50 μg/ml PEG20000, 1 μM [γ-^33P]-ATP (approx. 5×10^05 cpm per well).
(§4) The reaction cocktails were incubated at 30° C. for 80 minutes. […] Incorporation of ^33Pi was determined with a microplate scintillation counter (Microbeta Trilux, Wallac). […]

PDGFR-beta = molecular target: T2, PDGFR-beta (Homo sapiens, UniProt P09619); settings: PDGFR-beta, panel of 24 kinases, 1 μM ATP
T2 construct: made in house; host or cells: Sf9 insect cells (baculovirus)
Description: as §1, §2, §3
(§5) The reaction cocktails were incubated at 30° C. for 80 minutes. The reaction was stopped with 50 μl of 2% (v/v) H3PO4, plates were aspirated and washed two times with 200 μl of 0.9% (w/v) NaCl or 200 μl H2O. Incorporation of ^33Pi was determined with a microplate scintillation counter (Microbeta Trilux, Wallac). All assays were performed with a BeckmanCoulter/Sagian robotic system.
(§6) Using the same method described above, compound 31 was evaluated in a panel of 127 kinase enzymes.

VEGF-R3 = molecular target: T3, VEGF-R3 (Homo sapiens, UniProt P35916); settings: panel of 24 kinases, 1 μM ATP
T3 construct: made in house; host or cells: Sf9 insect cells (baculovirus)
Protocol: (§7) Radicicol A (1) and analogues 3 and 31 were tested for its inhibition in a panel of 24 kinase (AKT1, ARKS, Aurora-A, Aurora-B, B-RAF-VE, CDK2/CycA, CDK4/CycD1, CK2-α1, FAK, EPHB4, ERB2, EGF-R, IGF1-R, SRC, VEGF-R2, VEGF-R3, FLT3, INS-R, MET, PDGFR-β, PLK1, SAK, TIE2, COT) at 10 μM using the procedure described below.
as §1, §2, §3, §5, §6

FLT3 = molecular target: T4, FLT3 (Homo sapiens, UniProt P36888); settings: panel of 24 kinases, 1 μM ATP
T4 construct: made in house; host or cells: Sf9 insect cells (baculovirus)
T4 sequence (P36888 27-993): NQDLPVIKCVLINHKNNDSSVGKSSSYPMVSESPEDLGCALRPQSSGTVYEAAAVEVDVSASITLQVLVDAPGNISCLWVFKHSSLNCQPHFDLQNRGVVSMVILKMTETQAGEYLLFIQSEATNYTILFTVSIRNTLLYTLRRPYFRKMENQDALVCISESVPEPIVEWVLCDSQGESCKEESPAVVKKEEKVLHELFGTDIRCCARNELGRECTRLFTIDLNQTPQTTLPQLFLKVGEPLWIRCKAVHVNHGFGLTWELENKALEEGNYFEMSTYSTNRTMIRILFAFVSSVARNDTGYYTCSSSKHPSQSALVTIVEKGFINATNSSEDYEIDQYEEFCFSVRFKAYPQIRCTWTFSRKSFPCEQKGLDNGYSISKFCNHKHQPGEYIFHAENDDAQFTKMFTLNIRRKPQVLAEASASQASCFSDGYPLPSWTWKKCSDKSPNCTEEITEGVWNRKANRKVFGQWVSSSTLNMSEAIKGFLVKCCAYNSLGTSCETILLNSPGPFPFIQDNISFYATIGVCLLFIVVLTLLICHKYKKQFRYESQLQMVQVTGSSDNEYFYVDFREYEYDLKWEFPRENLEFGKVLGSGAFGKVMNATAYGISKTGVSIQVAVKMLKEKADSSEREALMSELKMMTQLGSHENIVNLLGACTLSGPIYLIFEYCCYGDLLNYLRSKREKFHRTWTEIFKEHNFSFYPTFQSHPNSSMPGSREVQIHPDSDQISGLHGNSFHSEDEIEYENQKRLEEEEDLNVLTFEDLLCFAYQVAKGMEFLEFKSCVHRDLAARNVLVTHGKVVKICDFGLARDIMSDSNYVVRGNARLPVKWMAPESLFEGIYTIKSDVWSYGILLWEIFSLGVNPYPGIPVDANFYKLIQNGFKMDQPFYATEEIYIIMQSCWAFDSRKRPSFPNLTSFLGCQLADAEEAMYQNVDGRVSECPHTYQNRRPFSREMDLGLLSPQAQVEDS
Protocol: as §7, §1, §2, §3, §5, §6

EPHB4 = molecular target: T5, EPHB4 (Homo sapiens, UniProt P54760); settings: panel of 24 kinases, 1 μM ATP, read-out: Inhibition of Kinases IC50
T5 construct: made in house; host or cells: Sf9 insect cells (baculovirus)
T5 sequence (P54760 16-987): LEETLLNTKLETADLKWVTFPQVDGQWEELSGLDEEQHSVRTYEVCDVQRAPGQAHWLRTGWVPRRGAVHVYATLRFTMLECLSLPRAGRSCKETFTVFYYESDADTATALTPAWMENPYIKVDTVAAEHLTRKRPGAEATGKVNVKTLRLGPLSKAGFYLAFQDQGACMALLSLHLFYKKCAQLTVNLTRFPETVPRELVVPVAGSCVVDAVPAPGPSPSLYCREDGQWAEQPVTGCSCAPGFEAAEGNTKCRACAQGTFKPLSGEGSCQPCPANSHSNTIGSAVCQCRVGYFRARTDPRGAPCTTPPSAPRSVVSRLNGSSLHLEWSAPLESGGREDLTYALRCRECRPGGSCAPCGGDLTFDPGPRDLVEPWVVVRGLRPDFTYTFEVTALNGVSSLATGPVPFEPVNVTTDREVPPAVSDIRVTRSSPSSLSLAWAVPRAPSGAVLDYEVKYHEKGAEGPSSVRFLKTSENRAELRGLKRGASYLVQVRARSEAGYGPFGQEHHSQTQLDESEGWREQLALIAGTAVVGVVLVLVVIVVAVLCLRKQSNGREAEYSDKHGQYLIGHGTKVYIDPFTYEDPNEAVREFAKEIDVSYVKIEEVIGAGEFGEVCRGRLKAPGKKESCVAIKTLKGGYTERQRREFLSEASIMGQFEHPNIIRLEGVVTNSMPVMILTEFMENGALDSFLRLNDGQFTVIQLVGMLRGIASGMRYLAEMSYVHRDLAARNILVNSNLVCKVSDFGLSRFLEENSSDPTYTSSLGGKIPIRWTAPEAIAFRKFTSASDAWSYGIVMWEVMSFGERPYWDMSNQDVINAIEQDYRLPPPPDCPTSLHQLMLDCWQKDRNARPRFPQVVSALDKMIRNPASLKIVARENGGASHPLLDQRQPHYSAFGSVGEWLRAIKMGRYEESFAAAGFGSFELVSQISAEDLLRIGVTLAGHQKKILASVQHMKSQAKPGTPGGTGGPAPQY
Protocol: as §7, §1
A radiometric protein kinase assay (^33PanQinase® Activity Assay) was used for measuring the kinase activity of the 24 protein kinases. All kinase assays were performed in 96-well FIashPlates™ from Perkin Elmer (Boston, Mass., USA) in a 50 μl reaction volume. […]
as §4

VEGF-R2 = VEGF-R2 (Homo sapiens, UniProt P35968); design: made in house; host or cells: Sf9 insect cells (baculovirus); settings: panel of 24 kinases, 1 μM ATP
Protocol: as §7, §1, §2, §3, §5, §6

[1] = read-out: Inhibition of Kinases IC50

T3 sequence (P35916 25-1363): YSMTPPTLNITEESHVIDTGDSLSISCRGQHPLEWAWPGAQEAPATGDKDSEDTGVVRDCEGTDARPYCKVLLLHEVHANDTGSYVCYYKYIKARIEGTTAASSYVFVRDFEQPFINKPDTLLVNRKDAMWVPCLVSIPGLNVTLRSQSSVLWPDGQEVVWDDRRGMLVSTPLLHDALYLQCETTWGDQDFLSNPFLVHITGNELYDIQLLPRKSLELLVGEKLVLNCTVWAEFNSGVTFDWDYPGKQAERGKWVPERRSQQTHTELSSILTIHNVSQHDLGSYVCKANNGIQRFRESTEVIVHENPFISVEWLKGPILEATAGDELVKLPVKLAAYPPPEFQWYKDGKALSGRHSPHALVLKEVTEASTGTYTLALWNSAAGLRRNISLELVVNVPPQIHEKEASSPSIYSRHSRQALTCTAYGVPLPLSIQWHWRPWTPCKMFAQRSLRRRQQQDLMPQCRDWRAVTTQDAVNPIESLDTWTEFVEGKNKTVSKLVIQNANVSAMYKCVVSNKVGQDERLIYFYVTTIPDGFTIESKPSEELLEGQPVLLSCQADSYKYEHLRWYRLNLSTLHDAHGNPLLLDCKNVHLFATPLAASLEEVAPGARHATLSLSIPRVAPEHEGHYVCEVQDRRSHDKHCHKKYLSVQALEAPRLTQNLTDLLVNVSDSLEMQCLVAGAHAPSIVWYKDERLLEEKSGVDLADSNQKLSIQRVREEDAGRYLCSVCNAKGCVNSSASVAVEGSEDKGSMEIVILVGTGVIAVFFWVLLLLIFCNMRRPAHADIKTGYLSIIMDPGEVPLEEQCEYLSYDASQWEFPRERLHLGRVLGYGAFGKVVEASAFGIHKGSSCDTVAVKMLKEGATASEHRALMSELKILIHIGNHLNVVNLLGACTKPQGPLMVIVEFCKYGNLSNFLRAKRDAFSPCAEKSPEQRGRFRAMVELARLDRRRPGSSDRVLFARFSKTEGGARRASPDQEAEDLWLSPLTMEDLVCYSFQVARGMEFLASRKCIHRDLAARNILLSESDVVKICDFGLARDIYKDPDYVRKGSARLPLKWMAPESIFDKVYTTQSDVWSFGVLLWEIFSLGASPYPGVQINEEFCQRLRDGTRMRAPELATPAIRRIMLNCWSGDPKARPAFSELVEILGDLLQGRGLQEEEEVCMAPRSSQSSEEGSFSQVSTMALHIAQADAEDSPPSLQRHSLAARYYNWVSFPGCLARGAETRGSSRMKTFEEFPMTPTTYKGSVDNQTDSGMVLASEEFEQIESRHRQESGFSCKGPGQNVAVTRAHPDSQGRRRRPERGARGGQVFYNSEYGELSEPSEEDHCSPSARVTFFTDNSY
T2 sequence (P09619 33-1106): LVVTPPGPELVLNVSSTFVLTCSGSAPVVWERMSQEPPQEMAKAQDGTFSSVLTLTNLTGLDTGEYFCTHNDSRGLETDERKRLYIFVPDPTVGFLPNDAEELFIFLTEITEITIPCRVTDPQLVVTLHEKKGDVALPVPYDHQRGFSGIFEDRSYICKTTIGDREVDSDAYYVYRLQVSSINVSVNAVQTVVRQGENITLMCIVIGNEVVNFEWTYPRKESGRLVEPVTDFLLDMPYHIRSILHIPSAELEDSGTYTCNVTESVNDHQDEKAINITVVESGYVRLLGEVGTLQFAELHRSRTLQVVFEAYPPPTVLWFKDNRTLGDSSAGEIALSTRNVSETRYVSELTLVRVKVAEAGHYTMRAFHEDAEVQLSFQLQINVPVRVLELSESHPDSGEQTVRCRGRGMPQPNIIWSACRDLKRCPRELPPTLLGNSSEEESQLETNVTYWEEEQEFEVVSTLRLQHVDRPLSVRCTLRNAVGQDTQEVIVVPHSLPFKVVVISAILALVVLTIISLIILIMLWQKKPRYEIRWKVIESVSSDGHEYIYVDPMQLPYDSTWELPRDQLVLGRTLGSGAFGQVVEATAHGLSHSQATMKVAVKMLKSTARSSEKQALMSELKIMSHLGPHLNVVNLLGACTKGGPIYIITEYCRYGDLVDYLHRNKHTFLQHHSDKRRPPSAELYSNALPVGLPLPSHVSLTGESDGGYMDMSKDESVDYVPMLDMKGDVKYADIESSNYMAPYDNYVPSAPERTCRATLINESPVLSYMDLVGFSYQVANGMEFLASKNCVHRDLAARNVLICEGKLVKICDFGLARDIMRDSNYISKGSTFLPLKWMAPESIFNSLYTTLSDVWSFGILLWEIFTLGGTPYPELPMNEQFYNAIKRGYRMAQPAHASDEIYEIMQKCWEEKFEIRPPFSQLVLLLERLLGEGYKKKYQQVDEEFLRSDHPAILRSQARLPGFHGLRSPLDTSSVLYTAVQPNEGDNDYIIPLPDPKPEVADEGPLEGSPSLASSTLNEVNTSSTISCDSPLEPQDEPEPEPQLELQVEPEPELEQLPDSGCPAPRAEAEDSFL
Chain of VEGF-R2 (P35968 20-1356): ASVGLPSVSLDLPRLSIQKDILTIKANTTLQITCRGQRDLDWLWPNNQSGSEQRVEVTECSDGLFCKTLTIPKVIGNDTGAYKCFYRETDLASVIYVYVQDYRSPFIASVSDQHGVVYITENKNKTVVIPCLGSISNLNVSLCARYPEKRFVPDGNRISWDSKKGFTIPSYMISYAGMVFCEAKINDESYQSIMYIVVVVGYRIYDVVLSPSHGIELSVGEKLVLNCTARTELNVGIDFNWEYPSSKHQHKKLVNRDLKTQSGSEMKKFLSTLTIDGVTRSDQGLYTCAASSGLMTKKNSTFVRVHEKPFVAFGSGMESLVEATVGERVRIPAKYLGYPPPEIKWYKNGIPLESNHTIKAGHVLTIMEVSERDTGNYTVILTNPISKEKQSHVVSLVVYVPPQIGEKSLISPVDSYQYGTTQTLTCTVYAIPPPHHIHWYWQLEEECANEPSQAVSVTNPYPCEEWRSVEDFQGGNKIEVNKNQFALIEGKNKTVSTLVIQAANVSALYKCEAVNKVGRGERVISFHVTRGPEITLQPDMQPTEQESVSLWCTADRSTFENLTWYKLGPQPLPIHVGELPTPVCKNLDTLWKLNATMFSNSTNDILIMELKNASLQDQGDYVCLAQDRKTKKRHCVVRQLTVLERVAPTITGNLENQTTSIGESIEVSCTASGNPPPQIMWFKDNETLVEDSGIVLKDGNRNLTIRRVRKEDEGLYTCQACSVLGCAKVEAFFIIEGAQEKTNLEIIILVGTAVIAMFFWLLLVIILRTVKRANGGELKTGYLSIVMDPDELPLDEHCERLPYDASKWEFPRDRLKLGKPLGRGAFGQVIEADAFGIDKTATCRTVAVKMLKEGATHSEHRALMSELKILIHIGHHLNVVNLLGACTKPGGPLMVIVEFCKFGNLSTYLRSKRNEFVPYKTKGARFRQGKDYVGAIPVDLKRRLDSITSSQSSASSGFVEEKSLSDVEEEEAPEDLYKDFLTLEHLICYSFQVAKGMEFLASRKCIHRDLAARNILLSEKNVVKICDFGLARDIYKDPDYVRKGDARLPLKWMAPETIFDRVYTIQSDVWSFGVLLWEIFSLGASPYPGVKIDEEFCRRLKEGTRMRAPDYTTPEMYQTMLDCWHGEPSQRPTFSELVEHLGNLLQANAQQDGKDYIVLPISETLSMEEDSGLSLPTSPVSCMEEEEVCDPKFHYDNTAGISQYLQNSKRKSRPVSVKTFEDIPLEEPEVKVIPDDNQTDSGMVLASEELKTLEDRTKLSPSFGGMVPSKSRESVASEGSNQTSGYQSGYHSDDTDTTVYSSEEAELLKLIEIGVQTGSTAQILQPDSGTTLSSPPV
T1 sequence (P12931 whole entry): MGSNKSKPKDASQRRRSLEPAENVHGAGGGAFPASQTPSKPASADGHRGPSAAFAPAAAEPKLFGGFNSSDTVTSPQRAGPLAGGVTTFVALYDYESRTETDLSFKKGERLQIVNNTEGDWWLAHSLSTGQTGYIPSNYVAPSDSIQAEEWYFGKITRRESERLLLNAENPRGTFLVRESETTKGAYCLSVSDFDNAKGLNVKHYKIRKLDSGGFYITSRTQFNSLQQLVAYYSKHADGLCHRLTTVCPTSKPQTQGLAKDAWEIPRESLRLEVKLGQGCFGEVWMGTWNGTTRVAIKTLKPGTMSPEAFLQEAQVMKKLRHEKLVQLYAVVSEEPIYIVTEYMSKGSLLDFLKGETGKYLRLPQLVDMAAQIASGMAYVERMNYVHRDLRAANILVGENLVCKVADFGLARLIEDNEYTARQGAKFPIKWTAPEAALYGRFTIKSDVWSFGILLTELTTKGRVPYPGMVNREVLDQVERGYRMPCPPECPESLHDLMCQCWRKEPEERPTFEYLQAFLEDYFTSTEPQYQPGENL

COc1cc(O)c2c(c1OC)/C=C/C[C@H](O)[C@H](O)C(=O)/C=C\C[C@H](C)OC2=O [Compound 1, Radicicol A]
IC50 (SRC): 9600 nM | Inhibition of Kinases IC50 (PDGFR-beta; listed as Radicicol A): potent inhibitory activity (low nM) | Inhibition of Kinases IC50 (PDGFR-beta; listed as radicicol A): potent inhibitory activity | IC50 (PDGFR-beta; [1]): 210 nM | Inhibition of Kinases IC50 (VEGF-R3; listed as Radicicol A): potent inhibitory activity (low nM) | Inhibition of Kinases IC50 (VEGF-R3; listed as radicicol A): potent inhibitory activity | IC50 (VEGF-R3; [1]): 66 nM | Inhibition of Kinases IC50 (FLT3; listed as Radicicol A): potent inhibitory activity (low nM) | Inhibition of Kinases IC50 (FLT3; listed as radicicol A): potent inhibitory activity | IC50 (FLT3; [1]): 110 nM | IC50 (EPHB4): 9100 nM | Inhibition of Kinases IC50 (VEGF-R2; listed as Radicicol A): potent inhibitory activity (low nM) | Inhibition of Kinases IC50 (VEGF-R2; listed as radicicol A): potent inhibitory activity | IC50 (VEGF-R2; [1]): 26 nM
